Publication PMC6646235, “Structure and ligand binding of As-p18, an extracellular fatty acid binding protein from the eggs of a parasitic nematode” (Bioscience Reports, 2019)
pKd: −log10 of the molar value.

Tests used:
As-p18 [1] = molecular target: T1, As-p18 (Ascaris suum, UniProt P55776); assay: X-ray crystallography at […] Å; GC-MS of co-purified lipid; type: binding; conditions: co-purified from E. coli; pH 4.5 crystal; ligand density incomplete, vaccenate modelled
T1 construct: mature protein without secretion signal peptide, N-terminal His-tag (pQE-30/As-p18), expressed in E. coli BL21 (DE3); monomer; delipidated by RP-HPLC for NMR, co-purified lipid retained for crystal
T1 sequence (P55776 21-163): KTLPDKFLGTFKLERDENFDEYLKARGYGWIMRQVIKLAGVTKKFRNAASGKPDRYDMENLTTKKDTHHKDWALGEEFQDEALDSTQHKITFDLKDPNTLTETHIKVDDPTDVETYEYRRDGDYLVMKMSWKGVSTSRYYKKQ

As-p18 [2] = molecular target: T1, As-p18; assay: isothermal titration calorimetry; complex also solved by solution NMR; type: binding

| Compound | X-ray crystallography at 2.3 Å; GC-MS of co-purified lipid (As-p18 [1]) | pKd (As-p18 [2]) |
| --- | --- | --- |
| CCCCCC/C=C\CCCCCCCCCC(=O)O [vaccenate, cis-11-octadecenoate] | The two X-ray structures of As-p18 in complex with vaccenate |  |
| CCCCCCCC/C=C\CCCCCCCC(=O)O [oleic acid] |  | 5.51 |
